From patent EP3800188A1, “SUBSTITUTED PYRAZOLOPYRIMIDINES AS IRAK4 INHIBITORS” (Bayer AG, priority 2019, dated 2021)

Assays:
human IRAK4 = target: T1, human IRAK4 (Homo sapiens, UniProt Q9NWZ3); test: Human IRAK4 kinase activity inhibition assay (IRAK4 TR-FRET assay); format: biochemical; conditions: 1 mM ATP, GST-human IRAK4, average or median values
T1 construct: GST (N); made in house; host or cells: baculovirus-infected Hi5 (BTI-TN-5B1-4) insect cells
T1 sequence (Q9NWZ3 1-460): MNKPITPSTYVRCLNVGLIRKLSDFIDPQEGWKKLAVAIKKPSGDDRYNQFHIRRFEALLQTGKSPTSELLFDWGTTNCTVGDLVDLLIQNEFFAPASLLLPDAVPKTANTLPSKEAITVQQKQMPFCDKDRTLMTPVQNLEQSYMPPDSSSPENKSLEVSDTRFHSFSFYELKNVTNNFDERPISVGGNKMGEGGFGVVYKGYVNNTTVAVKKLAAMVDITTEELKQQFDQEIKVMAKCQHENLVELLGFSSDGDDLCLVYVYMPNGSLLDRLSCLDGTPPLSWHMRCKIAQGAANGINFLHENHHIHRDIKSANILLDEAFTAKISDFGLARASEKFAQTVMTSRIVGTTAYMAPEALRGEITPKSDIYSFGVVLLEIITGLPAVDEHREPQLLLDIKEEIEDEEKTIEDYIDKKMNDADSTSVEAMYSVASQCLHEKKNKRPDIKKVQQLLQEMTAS
How it was run: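 GST-IRAK4 from insect cells (about 0.2 nM, linear range) was preincubated 15 min with compound (11 concentrations, 20 µM–0.073 nM) in HEPES pH 7.5 with MgCl2 and DTT before kinase reaction on a biotinylated peptide. Phosphopeptide was detected by TR-FRET (Eu anti-mouse-IgG/anti-phosphoserine/streptavidin-XL665, 1 h at 22°C) as the 665/620 nm ratio, normalized to no-compound and no-enzyme controls.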

[1] = Metabolic stability in human liver microsomes; conditions: 1 µM compound; for CLblood, human microsomes: hepatic in vivo blood clearance calculated with well stirred liver model, '(stable)' given beside < 0.01; for Fmax, human microsomes: maximal oral bioavailability calculated with well stirred liver model, 0.5 mg/mL protein, '(stable)' given beside 100

| IC50 (human IRAK4) | CLblood, human microsomes [1] | Fmax, human microsomes [1] | Compound |
| --- | --- | --- | --- |
| 11.5 nM | 0.83 mL/min/kg | 97% | O=S1(=O)C[C@H](Nc2nc(N3CC(N4CCOCC4)C3)c3cnn(-c4cccc(C(F)(F)F)c4)c3n2)[C@@H](O)C1 (relative stereo) [Example I-37, rel-(3R,4R)-4-({4-[3-(morpholin-4-yl)azetidin-1-yl]-1-[3-(trifluoromethyl)phenyl]-1H-pyrazolo[3,4-d]pyrimidin-6-yl}amino)tetrahydrothiophene-3-ol 1,1-dioxide] |
| 99.3 nM | 5.67 mL/min/kg | 74% | O=S1(=O)CC[C@@H](Nc2nc(N3CC(N4CCOCC4)C3)c3cnn(-c4cccc(C(F)(F)F)c4)c3n2)C1 [Example I-22, N-[(3R)-1,1-dioxidotetrahydrothiophen-3-yl]-4-[3-(morpholin-4-yl)azetidin-1-yl]-1-[3-(trifluoromethyl)phenyl]-1H-pyrazolo[3,4-d]pyrimidin-6-amine] |
| 7.01 nM | 2.83 mL/min/kg | 87% | O=C1C[C@H](Nc2nc(N3CCC(N4CCOCC4)CC3)c3cnn(-c4cccc(C(F)(F)F)c4)c3n2)CN1 [Example I-27, (4S)-4-({4-[4-(morpholin-4-yl)piperidin-1-yl]-1-[3-(trifluoromethyl)phenyl]-1H-pyrazolo[3,4-d]pyrimidin-6-yl}amino)pyrrolidin-2-one] |
| 10.8 nM | 7.17 mL/min/kg | 68% | CC(C)(O)C1CCN(c2nc(N[C@H]3CC[C@@H](O)C3)nc3c2cnn3-c2cccc(C(F)(F)F)c2)CC1 [Example I-29, (1R,3S)-3-({4-[4-(2-hydroxypropan-2-yl)piperidin-1-yl]-1-[3-(trifluoromethyl)phenyl]-1H-pyrazolo[3,4-d]pyrimidin-6-yl}amino)cyclopentanol] |

The remaining lines, values behind:

| Compound | IC50 (human IRAK4) | CLblood, human microsomes [1] | Fmax, human microsomes [1] |
| --- | --- | --- | --- |
| C[C@H]1CN(c2nc(N[C@H]3C[C@H](S(C)(=O)=O)C3)nc3c2cnn3-c2cccc(C(F)F)c2)C[C@@H]1O (relative stereo) [II-17-1, rel-(3R,4S)-1-(1-[3-(difluoromethyl)phenyl]-6-{[trans-3-(methylsulfonyl)cyclobutyl]-amino}-1H-pyrazolo[3,4-d]pyrimidin-4-yl)-4-methylpyrrolidin-3-ol] | 2.64 nM | 1.67 mL/min/kg | 93% |
| C[C@H]1CN(c2nc(N[C@H]3C[C@H](S(C)(=O)=O)C3)nc3c2cnn3-c2cccc(C(F)F)c2)C[C@@H]1O (single isomer, unassigned) [II-17-2, (3R*,4S*)-1-(1-[3-(difluoromethyl)phenyl]-6-{[trans-3-(methylsulfonyl)cyclobutyl]amino}-1H-pyrazolo[3,4-d]pyrimidin-4-yl)-4-methylpyrrolidin-3-ol] | 2.1 nM | 4.67 mL/min/kg | 79% |
| CCC1(O)CN(c2nc(N[C@@H]3CNC(=O)C3)nc3c2cnn3-c2cccc(C(F)(F)F)c2)C1 [Example I-3-1, (4S)-4-({4-(3-ethyl-3-hydroxyazetidin-1-yl)-1-[3-(trifluoromethyl)phenyl]-1H-pyrazolo[3,4-d]pyrimidin-6-yl}amino)pyrrolidin-2-one] | 9.76 nM | 7.67 mL/min/kg | 65% |
| CC(C)(O)C1CCN(c2nc(N[C@@H]3CCOC3)nc3c2cnn3-c2cccc(C(F)(F)F)c2)CC1 [Example I-16-2, 2-(1-{6-[(3R)-tetrahydrofuran-3-ylamino]-1-[3-(trifluoromethyl)phenyl]-1H-pyrazolo[3,4-d]pyrimidin-4-yl}piperidin-4-yl)propan-2-ol] | 16.1 nM | 15.3 mL/min/kg | 30% |
